According to patent US9504699B2, “Delayed-release glucocorticoid treatment of rheumatoid disease” (Horizon Pharma AG, priority 2006, dated 2016):

Assays:
Type in all cases: in vivo, human
adult RA patients [1] = experiment: 9-month open follow-up on Prednisone delayed-release: duration of morning stiffness; details: prednisone = all subjects
Excerpt: Although efficacy was not the main objective of this open follow-up study, the order of reporting was kept the same as in the previous study report on the double-blind phase. […] Mean Daily Duration of Morning Stiffness
The mean daily duration of morning stiffness at start of the double-blind period (Visit 2), at start of the open follow-up period (Visit 5) and at end of study (Visit 8) as well as the relative changes are presented in Table 10 and FIG. 2 for the study population.
Taking advantage of the higher number of available data, the interpretation of the results was carried out for the total numbers.

CRP = experiment: 9-month open follow-up: CRP; details: after 12 weeks double-blind, by group; prednisone = Total
Excerpt: The median values of the inflammatory signs CRP and IL-6 during the open follow-up period (Visit 5 to Visit 8) and the respective absolute changes are presented in Table 12 and FIG. 3.

adult RA patients [2] = experiment: Phase III study, double-blind phase: adverse events
[3] = after 12 weeks double-blind, by group
[4] = subjects of open follow-up, by double-blind group
[5] = 12-week double-blind phase, prednisone = Total

## C[C@]12C=CC(=O)C=C1CC[C@@H]1[C@@H]2C(=O)C[C@@]2(C)[C@H]1CC[C@]2(O)C(=O)CO [prednisone]
Adult RA patients [1]; [3]
  Duration of morning stiffness, Visit 5 (Start of Follow-up Period), mean: 125.56 min
  Duration of morning stiffness, Visit 5 (Start of Follow-up Period), median: 83.93 min
Adult RA patients [1]; [4]
  Duration of morning stiffness, Visit 2 (Start of Double-blind Period), mean: 169.80 min
  Duration of morning stiffness, Visit 2 (Start of Double-blind Period), median: 143.21 min
CRP
  CRP (median), Visit 5 (Start of Follow-up): 9.40 (n = 249) mg/L
Adult RA patients [2]; 12-week double-blind phase, label prednisone = Total of both groups (N = 288)
  All AEs (at least one treatment-emergent AE): 118 (41.0) No. (%) subjects
Adult RA patients [2]; [5]
  AE: Abdominal pain (Upper): 13 (4.5) No. (%) subjects
  AE: Flushing: 10 (3.5) No. (%) subjects
  AE: Headache: 10 (3.5) No. (%) subjects
  AE: Nasopharyngitis (values printed on the line headed 'Upper'): 12 (4.2) No. (%) subjects
  AE: Nausea: 9 (3.1) No. (%) subjects
  AE: Rheumatoid arthritis: 24 (8.3) No. (%) subjects
  Drug-related AE: Abdominal pain (Upper): 7 (2.4) No. (%) subjects
  Drug-related AE: Headache: 6 (2.1) No. (%) subjects
  Drug-related AE: Nausea (values printed on the line headed 'Upper'): 6 (2.1) No. (%) subjects
  Drug-related AE: Rheumatoid arthritis: 5 (1.7) No. (%) subjects
Adult RA patients [2]; double-blind phase, both groups, 2.4%
  SAEs: Seven
Adult RA patients [2]; double-blind phase, both groups, 7.6%
  AEs causing discontinuation of prednisone: 22 subjects
Adult RA patients [2]; of the 7 subjects with SAEs
  SAE judged to be related to prednisone by the investigator: one
